Experiments:
[1] = tested on: AMP-activated protein kinase; experiment: AMP-activated protein kinase activity
aPKC = experiment: tissue aPKC activity in Het-MλKO mice; assay type: in vivo, mouse; settings: for aPKC activation in adipose tissue / aPKC activation in muscle: 7-day treatment s.c. (ATM 60 mg/kg; ICAPP 0.4 mg/kg)
Text: In Vivo Mouse Studies: Male wild type (WT) and heterozygous muscle-specific PKC-λ knockout (Het-MλKO) mice were generated as described (Farese et al., J. Clin. Invest. 117:2289-2301, 2007) and used at 6-12 months of age, when the O/MS/T2DM phenotype in MλKO mice is well-developed. Mice were housed in a temperature-controlled environment with alternating 12-hour light and dark cycles, and fed ad libitum with standard chow (Harlan Teklad 20/18 with 5% fat, (10% of calories from fat)). All experimental procedures in mice were approved by the Institutional Animal Care and Use Committees of the Roskamp Institute and the University of South Florida College of Medicine, and the James A. Haley Veterans Administration Medical Center Research and Development Committee, Tampa, Fla.
(ICAPP; prepared by Southern Research, Birmingham, Ala.) at 0.4 mg/kg body weight. On the morning of the eighth day of inhibitor treatment, mice were injected intraperitoneally (IP) with 0.9% saline or saline containing 1 U insulin/kg body weight 15 minutes before sacrifice, an optimal time for studies of insulin stimulation of aPKC and Akt in liver, muscle and adipose tissues (Standaert et al., J. Biol. Chem. 279:24929-24934, 2004; Sajan et al., J. Lipid Res. 50:1133-1145, 2009; Sajan et al., Diabetologia 52:1197-1207, 2009; Farese et al., J. Clin. Invest. 117:2289-2301, 2007). After killing, blood, liver, quadriceps muscle and abdominal adipose tissues were rapidly removed and homogenized in buffer with a POLYTRON® homogenizer.
Tissue and Immunoprecipitate Preparations: As previously described (Standaert et al., J. Biol. Chem. 279:24929-24934, 2004; Sajan et al., J. Lipid Res. 50:1133-1145, 2009; Sajan et al., Diabetologia 52:1197-1207, 2009; Farese et al., J. Clin. Invest. 117:2289-2301, 2007) hepatocytes and tissues from in vivo experiments were homogenized in ice-cold buffer containing 0.25 M sucrose, 20 mM Tris/HCl (pH 7.5), 2 mM EGTA, 2 mM EDTA, 1 mM phenylmethylsulfonyl fluoride (PMSF), 20 μg/ml leupeptin, 10 μg/ml aprotinin, 2 mM Na4P2O7, 2 mM Na3VO4, 2 mM NaF, and 1 μM microcystin. After centrifugation for 10 minutes at 700×g to remove unbroken cells, debris, nuclei, and floating fat, cell lysates were stored at −70° C. After addition of 1% TRITON® X-100, 0.6% Nonidet and 150 mM NaCl, lysates were cleared of insoluble materials by low-speed centrifugation and subsequently immunoprecipitated with antibodies that target: (a) aPKCs (rabbit polyclonal antiserum from Santa Cruz Biotechnologies (Santa Cruz, Calif.) that recognizes C-termini of both PKC-λ and PKC-ζ); and (b) Akt2 (Upstate Cell Signaling/Millipore, Billerica, Mass.). Immunoprecipitates were collected on Sepharose-AG beads (Santa Cruz Biotechnologies).
aPKCι Assays: aPKC enzyme activity was measured as previously described (Standaert et al., J. Biol. Chem. 279:24929-24934, 2004; Sajan et al., J. Lipid Res. 50:1133-1145, 2009; Sajan et al., Diabetologia 52:1197-1207, 2009; Farese et al., J. Clin. Invest. 117:2289-2301, 2007). […] After incubation, ^32P-labeled substrate was trapped on P-81 filter paper and counted. This assay reflects the specific activity of a constant amount of aPKC (even in Het-MλKO mice) that is immunoprecipitated by supplier-prescribed amounts of antiserum (Farese et al., J. Clin. Invest. 117:2289-2301, 2007; Beeson et al., Diabetes 52:1926-1934, 2003).

[2] = Het-MλKO mice, s.c. once daily (ICAPP 0.4 mg/kg 7 days; ICAP 0.5 mg/kg 8 days)

O=C([O-])CC([S][Au])C(=O)[O-] (stereo not drawn) [ATM, aurothiomalate, reference compound]
AMP-activated protein kinase activity [1]: neither ICAPP nor ATM altered
aPKC activation in adipose tissue (aPKC; Het-MλKO mice): increased significantly
aPKC activation in muscle (aPKC; Het-MλKO mice): increased significantly

NC(=O)c1ncn([C@@H]2C[C@H](CO)[C@@H](O)[C@H]2O)c1N [ICAP, 1H-imidazole-4-carboxamide 5-amino-1-[2,3-dihydroxy-4-[hydroxymethyl]cyclopentyl]-[1R-(1α,2β,3β,4α)]]
hepatic aPKC activity (aPKC; [2]): inhibited
hepatic aPKC activity (aPKC; ICAP-treated Mλ-Het KO mice (n = 12), 0.5 mg/kg body weight/day x 8 days s.c., mean ± SEM): 1374 ± 128 cpm/immunoppt

NC(=O)c1ncn([C@@H]2C[C@H](COP(=O)(O)O)[C@@H](O)[C@H]2O)c1N [ICAPP, 1H-imidazole-4-carboxamide, 5-amino-1-[2,3-dihydroxy-4-[(phosphonooxy)methyl]cyclopentyl]-[1R-(1α,2β,3β,4α)]]
AMP-activated protein kinase activity [1]: neither ICAPP nor ATM altered
aPKC activation in adipose tissue (aPKC; Het-MλKO mice): increased significantly or trended upward
aPKC activation in muscle (aPKC; Het-MλKO mice): increased significantly or trended upward
hepatic aPKC activity (aPKC; [2]): diminished

— patent US8580769B2, “Treatment of obesity, metabolic syndrome, and diabetes with protein kinase C inhibitors” (The United States of America as represented by the …, priority 2011, dated 2013)
